Laboratory results: PMC8151276, “An Integrated Approach toward NanoBRET Tracers for Analysis of GPCR Ligand Engagement” (Molecules, 2021)

Tests used:
P2RY14 = target: T1, P2RY14 (Homo sapiens, UniProt Q15391); assay: NanoBRET screen HiBiT-P2RY14 in HEK293; assay type: binding; conditions: P2RY14
T1 construct: purchased Promega (in-house HiBiT-GPCR construct library, NanoBRET)
T1 sequence (Q15391 1-338): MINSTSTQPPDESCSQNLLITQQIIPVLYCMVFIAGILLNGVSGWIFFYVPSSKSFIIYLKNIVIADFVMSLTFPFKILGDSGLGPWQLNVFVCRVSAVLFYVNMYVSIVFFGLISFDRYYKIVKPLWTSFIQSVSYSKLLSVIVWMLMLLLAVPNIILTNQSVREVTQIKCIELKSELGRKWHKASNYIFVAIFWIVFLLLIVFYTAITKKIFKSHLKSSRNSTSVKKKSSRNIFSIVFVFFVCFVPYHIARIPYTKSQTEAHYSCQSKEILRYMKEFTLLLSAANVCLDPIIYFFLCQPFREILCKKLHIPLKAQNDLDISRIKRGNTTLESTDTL
Protocol: (§1) Each tracer candidate was screened across the entire library of HiBiT-GPCR constructs using NanoBRET as the detection modality. As depicted in Figure 4A, the specificity of interactions was evaluated through decrease in BRET due to competitive displacement of a bound tracer by excess parental compound. Each tracer was analyzed for binding to each HiBiT-GPCR fusion in the absence and in the presence of competing parental compound. Briefly, HEK293 cells were transfected with HiBiT-GPCR constructs diluted into promoterless DNA to reduce expression and maximize translocation to the cell surface. Each tracer candidate was then screened at concentrations of 1 μM and 0.1 μM across cells expressing these fusions. Cells were treated for 1.5 h with tracer either alone or in the presence of 20 μM competing parental compound (i.e., control). BRET was measured upon addition of purified LgBiT and subsequent complementation with HiBiT genetically fused to a GPCR. The specificity of interactions was assessed through a decrease in BRET signal due to competitive displacement of the bound tracer. To further gauge the robustness of these interactions, the fold response over the control (i.e., BRETtracer/BRETcontrol) was calculated. We chose a 1.5-fold response, which translates to ≥7-fold signal over noise as the minimal threshold required to score an interaction as positive. […]. Below we highlight the screening results obtained for our exemplary fluorescent tracers based on Clozapine, Amitriptyline and AZD1283.
(§2) HiBiT-GPCR DNA constructs were diluted in 10 mM Tris pH 8 to a final concentration of 0.01 μg/μL, arrayed in 96-well plates and stored at −20 °C. For transfection, HEK293 cells were suspended in Opti-MEM (without phenol red) supplemented with 2% fetal bovine serum (Seradigm) and 100 units/mL penicillin–streptomycin (Gibco) at a final concentration of 220,000 cells/mL and dispensed into white 96-well plates at 90 μL/well. Subsequent transfections and screens were carried using an Agilent Bravo Automated Liquid Handling Platform. First, the 96-well HiBiT DNA arrays were diluted 25-fold in Opti-MEM (without serum or phenol red) to a final concentration of 0.0004 μg/μL and 20 μL of the diluted DNAs were transferred into new 96-well plates. Next, promoterless carrier DNA (1 μg/μL) was diluted 25-fold (0.04 μg/μL) and then dispensed into the diluted arrays at 20 μL/well. Following brief mixing, Viafect transfection reagent (Promega) diluted 16-fold into Opti-MEM was dispensed into the plates at 40 μL/well. After mixing by pipetting, plates were incubated for 10 min on the pipetting station deck. The DNA-transfection reagent complexes were then added to plates containing cells. To facilitate the screen, 10 μL of DNA-transfection reagent complexes were added in duplicates to the top 4 and bottom 4 rows, resulting in two identical 48-well arrays per plate. Plates with transfected cells were incubated for 18–20 h at 37 °C/5% CO2. A screen of each tracer across the entire library using two different concentrations requires duplicate plates of transfected cells. Depending on the number of tracers being screened, transfections can be scaled up using the same ratios. The next day, for each tracer, four 20× screening solutions in tracer dilution buffer (Promega) were prepared: two duplicates at final concentration of 20 μM and two duplicates at a final concentration of 2 μM. A competing unmodified compound was added to one of each duplicate at a final concentration of 400 μM. The four resulting solutions were diluted 4-fold in Opti-MEM without serum or phenol red to generate 5× solutions (5 µM and 0.5 µM tracer +/− 100 μM competing compound). To screen the library, a BioTek MultiFlo FX liquid dispenser was used to dispense 22.5 µL of tracer solution to the top 4 rows and 22.5 µL tracer + competing compound solution to the 4 bottom rows. Plates were briefly mixed on an orbital shaker and incubated for 1.5 h at room temperature. […]

GABBR2 = target: T2, GABBR2 (Homo sapiens, UniProt O75899); assay: NanoBRET screen HiBiT-GABBR2 in HEK293; assay type: binding; conditions: GABBR2
T2 construct: purchased Promega (in-house HiBiT-GPCR construct library, NanoBRET)
T2 sequence (O75899 42-941): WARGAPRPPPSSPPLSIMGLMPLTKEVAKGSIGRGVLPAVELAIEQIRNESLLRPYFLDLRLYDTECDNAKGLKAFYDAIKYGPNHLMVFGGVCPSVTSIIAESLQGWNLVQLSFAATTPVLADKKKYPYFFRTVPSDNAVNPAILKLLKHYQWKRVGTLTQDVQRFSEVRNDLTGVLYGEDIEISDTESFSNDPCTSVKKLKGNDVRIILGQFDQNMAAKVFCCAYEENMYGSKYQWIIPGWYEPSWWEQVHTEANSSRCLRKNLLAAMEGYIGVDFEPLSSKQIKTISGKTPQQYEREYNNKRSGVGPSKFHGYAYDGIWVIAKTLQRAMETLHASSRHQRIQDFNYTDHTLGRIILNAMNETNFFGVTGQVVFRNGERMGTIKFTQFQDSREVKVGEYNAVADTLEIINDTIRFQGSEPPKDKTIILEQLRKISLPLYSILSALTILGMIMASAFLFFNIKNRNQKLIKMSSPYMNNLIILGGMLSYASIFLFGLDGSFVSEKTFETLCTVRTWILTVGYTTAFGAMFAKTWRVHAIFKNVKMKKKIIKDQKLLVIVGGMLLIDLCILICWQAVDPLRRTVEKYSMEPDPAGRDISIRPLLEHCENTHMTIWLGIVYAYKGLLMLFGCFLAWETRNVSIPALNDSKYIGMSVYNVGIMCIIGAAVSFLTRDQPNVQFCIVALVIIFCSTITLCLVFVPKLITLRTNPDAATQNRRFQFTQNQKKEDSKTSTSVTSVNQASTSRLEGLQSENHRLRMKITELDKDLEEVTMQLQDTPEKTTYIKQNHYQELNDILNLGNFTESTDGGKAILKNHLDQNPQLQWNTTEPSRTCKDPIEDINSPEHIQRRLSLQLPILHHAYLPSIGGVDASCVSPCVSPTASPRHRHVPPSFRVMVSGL
Protocol: as §1, §2

Row | SMILES | NanoBRET Fold Response (P2RY14; tracer 0.1μM) | NanoBRET Fold Response (P2RY14; tracer 1μM) | NanoBRET Fold Response (GABBR2; tracer 0.1μM) | NanoBRET Fold Response (GABBR2; tracer 1μM)
1 | O=C(CCc1ccc2n1[B-](F)(F)[N+]1=C(c3ccc[nH]3)C=CC1=C2)NCCOCCOCCNC(=O)OCCOCCN1CCN(C2=Nc3ccccc3Sc3ccccc32)CC1 [Quetiapine-a-2-NB590] | 0.96 | 0.93 | 1.06 | 0.91
2 | Cc1nc2n(c(=O)c1CCN1CCC(c3noc4cc(F)ccc34)CC1)CCCC2OC(=O)NCCOCCOCCOCCOCCNC(=O)CCc1ccc2n1[B-](F)(F)[N+]1=C(c3ccc[nH]3)C=CC1=C2 (centres unmarked) [Risperidone-2-NB590] | 1.02 | 0.93 | 1.07 | 1.17
3 | CC(C)N(CC[C@H](c1ccccc1)c1cc(CCNC(=O)CCOCCOCCOCCOCCNC(=O)CCc2ccc3n2[B-](F)(F)[N+]2=C(c4ccc[nH]4)C=CC2=C3)ccc1O)C(C)C [Tolterodine-2-NB590] | 0.93 | 1.08 | 1.15 | 1.02
4 | CC(C)N(CC[C@H](c1ccccc1)c1cc(CCNC(=O)c2ccc(CNC(=O)CCc3ccc4n3[B-](F)(F)[N+]3=C(c5ccc[nH]5)C=CC3=C4)cc2)ccc1O)C(C)C [Tolterodine-BZ-NB590] | 0.86 | 0.88 | 0.87 | 0.71
5 | CCCn1c(=O)c2[nH]c(-c3ccc(OCC(=O)NCCNC(=O)CCOCCNC(=O)c4ccc(CNC(=O)CCc5ccc6n5[B-](F)(F)[N+]5=C(c7ccc[nH]7)C=CC5=C6)cc4)cc3)nc2n(CCC)c1=O [XAC-3-NB590] | 0.59 | 1.36 | 1.02 | 1.11
